Experiment: Selectivity index, ratio of antiinflammatory activity in mouse BMDM cells assessed as inhibition of TNF-alpha production to antiinflammatory activity in mouse BMDM cells assessed as inhibition of IL1-beta production
Assay type: functional
Note: test concentration or dose not given here.

SMILES | Selectivity Index
COC(=O)c1nnn(Cc2cc(Cl)c(C(=O)c3ccc(Cl)cc3)c(Cl)c2)c1N | 2.72
Nc1c(C(=O)NCCOCCO)nnn1Cc1cc(Cl)c(C(=O)c2ccc(Cl)cc2)c(Cl)c1 | 1.12
NC(=O)c1nnn(Cc2cc(Cl)c(C(=O)c3ccc(Cl)cc3)c(Cl)c2)c1NC(=O)C1CC1 | 0.78
NC(=O)c1nnn(Cc2cc(Cl)c(C(=O)c3ccc(Cl)cc3)c(Cl)c2)c1NC(=O)c1ccco1 | 2.65
Nc1c(C(=O)NCCOCCOCCO)nnn1Cc1cc(Cl)c(C(=O)c2ccc(Cl)cc2)c(Cl)c1 | 5.3
CC(=O)c1nnn(Cc2cc(Cl)c(C(=O)c3ccc(Cl)cc3)c(Cl)c2)c1N | 0.8
CN(C)C(=O)c1nnn(Cc2cc(Cl)c(C(=O)c3ccc(Cl)cc3)c(Cl)c2)c1N | 0.75
NC(=O)c1nnn(Cc2cc(Cl)c(C(=O)c3ccc(Cl)cc3)c(Cl)c2)c1NC(=O)CCCBr | 19.51
CN1CCN(C(=O)c2nnn(Cc3cc(Cl)c(C(=O)c4ccc(Cl)cc4)c(Cl)c3)c2N)CC1 | 0.38
CCC(=O)Nc1c(C(N)=O)nnn1Cc1cc(Cl)c(C(=O)c2ccc(Cl)cc2)c(Cl)c1 | 3.33

Experiment: Antiinflammatory activity in mouse BMDM cells assessed as inhibition of TNF-alpha production relative to control
Assay type: functional

SMILES | inhibition (INH) [%]
CC(C)(C)C(=O)N(C(=O)C(C)(C)C)c1c(C(N)=O)nnn1Cc1cc(Cl)c(C(=O)c2ccc(Cl)cc2)c(Cl)c1 | 17.92
NC(=O)c1nnn(Cc2cc(Cl)c(C(=O)c3ccc(Cl)cc3)c(Cl)c2)c1N(C(=O)C1CC1)C(=O)C1CC1 | 48.7
CC(C)C(=O)N(C(=O)C(C)C)c1c(C(N)=O)nnn1Cc1cc(Cl)c(C(=O)c2ccc(Cl)cc2)c(Cl)c1 | 20.24
NC(=O)c1nnn(Cc2ccc3ccccc3c2)c1N | 2.5
NC(=O)c1nnn(Cc2ccc(-c3ccccc3)cc2)c1N | 0.39
COC(=O)c1nnn(Cc2cc(Cl)c(C(=O)c3ccc(Cl)cc3)c(Cl)c2)c1N | -6.83
Nc1c(C(=O)NCCOCCO)nnn1Cc1cc(Cl)c(C(=O)c2ccc(Cl)cc2)c(Cl)c1 | 5.3
NC(=O)c1nnn(Cc2cc(Cl)c(C(=O)c3ccc(Cl)cc3)c(Cl)c2)c1NC(=O)C1CC1 | 73.51
NC(=O)c1nnn(Cc2cc(Cl)c(C(=O)c3ccc(Cl)cc3)c(Cl)c2)c1NC(=O)c1ccco1 | 21.44
Nc1c(C(=O)NCCOCCOCCO)nnn1Cc1cc(Cl)c(C(=O)c2ccc(Cl)cc2)c(Cl)c1 | 8.04
CC(=O)c1nnn(Cc2cc(Cl)c(C(=O)c3ccc(Cl)cc3)c(Cl)c2)c1N | 49.4
CN(C)C(=O)c1nnn(Cc2cc(Cl)c(C(=O)c3ccc(Cl)cc3)c(Cl)c2)c1N | 57.9
NC(=O)c1nnn(Cc2cc(Cl)c(C(=O)c3ccc(Cl)cc3)c(Cl)c2)c1NC(=O)CCCBr | -2.72
NC(=O)c1nnn(Cc2ccccc2)c1N | -12.61
NC(=O)c1nnn(Cc2ccc(C(=O)c3ccccc3)cc2)c1N | -16.37
CN1CCN(C(=O)c2nnn(Cc3cc(Cl)c(C(=O)c4ccc(Cl)cc4)c(Cl)c3)c2N)CC1 | 97
CCC(=O)N(C(=O)CC)c1c(C(N)=O)nnn1Cc1cc(Cl)c(C(=O)c2ccc(Cl)cc2)c(Cl)c1 | 11.95
CCC(CC)C(=O)N(C(=O)C(CC)CC)c1c(C(N)=O)nnn1Cc1cc(Cl)c(C(=O)c2ccc(Cl)cc2)c(Cl)c1 | 12.68
CCC(=O)Nc1c(C(N)=O)nnn1Cc1cc(Cl)c(C(=O)c2ccc(Cl)cc2)c(Cl)c1 | 14.25

Experiment: Antiinflammatory activity in mouse BMDM cells assessed as inhibition of IL1-beta production relative to control
Assay type: functional

SMILES | inhibition (INH) [%]
CC(C)(C)C(=O)N(C(=O)C(C)(C)C)c1c(C(N)=O)nnn1Cc1cc(Cl)c(C(=O)c2ccc(Cl)cc2)c(Cl)c1 | -8.41
NC(=O)c1nnn(Cc2cc(Cl)c(C(=O)c3ccc(Cl)cc3)c(Cl)c2)c1N(C(=O)C1CC1)C(=O)C1CC1 | -36.41
CC(C)C(=O)N(C(=O)C(C)C)c1c(C(N)=O)nnn1Cc1cc(Cl)c(C(=O)c2ccc(Cl)cc2)c(Cl)c1 | -22.3
NC(=O)c1nnn(Cc2ccc3ccccc3c2)c1N | -26.65
NC(=O)c1nnn(Cc2ccc(-c3ccccc3)cc2)c1N | -18.17
COC(=O)c1nnn(Cc2cc(Cl)c(C(=O)c3ccc(Cl)cc3)c(Cl)c2)c1N | 18.59
Nc1c(C(=O)NCCOCCO)nnn1Cc1cc(Cl)c(C(=O)c2ccc(Cl)cc2)c(Cl)c1 | 62
NC(=O)c1nnn(Cc2cc(Cl)c(C(=O)c3ccc(Cl)cc3)c(Cl)c2)c1NC(=O)C1CC1 | 57.13
NC(=O)c1nnn(Cc2cc(Cl)c(C(=O)c3ccc(Cl)cc3)c(Cl)c2)c1NC(=O)c1ccco1 | 56.91
Nc1c(C(=O)NCCOCCOCCO)nnn1Cc1cc(Cl)c(C(=O)c2ccc(Cl)cc2)c(Cl)c1 | 42.65
CC(=O)c1nnn(Cc2cc(Cl)c(C(=O)c3ccc(Cl)cc3)c(Cl)c2)c1N | 39.49
CN(C)C(=O)c1nnn(Cc2cc(Cl)c(C(=O)c3ccc(Cl)cc3)c(Cl)c2)c1N | 43.42
NC(=O)c1nnn(Cc2cc(Cl)c(C(=O)c3ccc(Cl)cc3)c(Cl)c2)c1NC(=O)CCCBr | 53.09
NC(=O)c1nnn(Cc2ccccc2)c1N | -6.29
NC(=O)c1nnn(Cc2ccc(C(=O)c3ccccc3)cc2)c1N | 1.36
CN1CCN(C(=O)c2nnn(Cc3cc(Cl)c(C(=O)c4ccc(Cl)cc4)c(Cl)c3)c2N)CC1 | 36.62
CCC(=O)N(C(=O)CC)c1c(C(N)=O)nnn1Cc1cc(Cl)c(C(=O)c2ccc(Cl)cc2)c(Cl)c1 | -23.37
CCC(CC)C(=O)N(C(=O)C(CC)CC)c1c(C(N)=O)nnn1Cc1cc(Cl)c(C(=O)c2ccc(Cl)cc2)c(Cl)c1 | -22.74
CCC(=O)Nc1c(C(N)=O)nnn1Cc1cc(Cl)c(C(=O)c2ccc(Cl)cc2)c(Cl)c1 | 47.39
